From paper PMC7265341, “Quantifying CDK inhibitor selectivity in live cells” (Nature Communications, 2020)
Like-named read-outs stand apart in the source and are kept apart here.

Columns and labels:
CDK11B/Cyclin L2 = CDK11B/Cyclin L2 (Homo sapiens, UniProt P21127); assay: NanoBRET live-cell target engagement, CDK11B-NanoLuc/Cyclin L2 in HEK-293; type: binding; conditions: 10µM
CDK1/Cyclin E1 = CDK1/Cyclin E1 (Homo sapiens, UniProt P06493); assay: NanoBRET live-cell target engagement, CDK1-NanoLuc/Cyclin E1 in HEK-293; type: binding; conditions: 10µM
CDK16/Cyclin Y = CDK16/Cyclin Y (Homo sapiens, UniProt Q00536); assay: NanoBRET live-cell target engagement, CDK16-NanoLuc/Cyclin Y in HEK-293; type: binding; conditions: 10µM
CDK13/Cyclin K = CDK13/Cyclin K (Homo sapiens, UniProt Q14004); assay: NanoBRET live-cell target engagement, CDK13-NanoLuc/Cyclin K in HEK-293; type: binding; conditions: 10µM
CDK20/Cyclin H = CDK20/Cyclin H (Homo sapiens, UniProt Q8IZL9); assay: NanoBRET live-cell target engagement, NanoLuc-CDK20/Cyclin H in HEK-293; type: binding; conditions: 10µM
CDK4/Cyclin D1 = CDK4/Cyclin D1 (Homo sapiens, UniProt P11802); assay: NanoBRET live-cell target engagement, NanoLuc-CDK4/Cyclin D1 in HEK-293; type: binding; conditions: 10µM
CDK15/Cyclin Y = CDK15/Cyclin Y (Homo sapiens, UniProt Q96Q40); assay: NanoBRET live-cell target engagement, NanoLuc-CDK15/Cyclin Y in HEK-293; type: binding; conditions: 10µM
CDK2/Cyclin E1 = CDK2/Cyclin E1 (Homo sapiens, UniProt P24941); assay: NanoBRET live-cell target engagement, CDK2-NanoLuc/Cyclin E1 in HEK-293; type: binding; conditions: 10µM
CDK19/Cyclin C = CDK19/Cyclin C (Homo sapiens, UniProt Q9BWU1); assay: NanoBRET live-cell target engagement, NanoLuc-CDK19/Cyclin C in HEK-293
CDK8/Cyclin C = CDK8/Cyclin C (Homo sapiens, UniProt P49336); assay: NanoBRET live-cell target engagement, NanoLuc-CDK8/Cyclin C in HEK-293; type: binding; conditions: for IC50: read-out: CDK8/C IC50
CDK11A/Cyclin L2 = biological target: T1, CDK11A/Cyclin L2 (Homo sapiens, UniProt Q9UQ88); assay: NanoBRET live-cell target engagement, CDK11A-NanoLuc/Cyclin L2 in HEK-293; type: binding; conditions: 10µM
T1 sequence (Q9UQ88 1-783): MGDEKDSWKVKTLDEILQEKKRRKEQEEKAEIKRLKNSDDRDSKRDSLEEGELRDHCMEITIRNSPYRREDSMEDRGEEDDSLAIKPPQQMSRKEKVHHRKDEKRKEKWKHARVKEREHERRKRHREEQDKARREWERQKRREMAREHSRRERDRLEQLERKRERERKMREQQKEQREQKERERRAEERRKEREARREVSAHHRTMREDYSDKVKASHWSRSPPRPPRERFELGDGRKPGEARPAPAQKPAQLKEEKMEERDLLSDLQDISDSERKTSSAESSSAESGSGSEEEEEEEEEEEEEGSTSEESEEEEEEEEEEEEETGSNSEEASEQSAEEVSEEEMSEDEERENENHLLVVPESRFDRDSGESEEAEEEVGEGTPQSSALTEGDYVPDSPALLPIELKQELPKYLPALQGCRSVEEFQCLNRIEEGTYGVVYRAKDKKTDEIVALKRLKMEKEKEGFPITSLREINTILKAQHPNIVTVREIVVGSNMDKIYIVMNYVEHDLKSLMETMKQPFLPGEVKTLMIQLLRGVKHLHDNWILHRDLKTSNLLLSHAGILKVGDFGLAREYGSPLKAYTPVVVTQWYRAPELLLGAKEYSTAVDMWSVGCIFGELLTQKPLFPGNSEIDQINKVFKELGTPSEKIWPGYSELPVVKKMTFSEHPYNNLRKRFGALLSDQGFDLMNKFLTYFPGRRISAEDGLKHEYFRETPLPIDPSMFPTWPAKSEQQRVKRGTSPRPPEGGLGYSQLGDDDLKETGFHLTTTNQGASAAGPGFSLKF

CDK14/Cyclin Y = CDK14/Cyclin Y (Homo sapiens, UniProt O94921); assay: NanoBRET live-cell target engagement, CDK14-NanoLuc/Cyclin Y in HEK-293; type: binding; conditions: 10µM
CDK18/Cyclin Y = CDK18/Cyclin Y (Homo sapiens, UniProt Q07002); assay: NanoBRET live-cell target engagement, CDK18-NanoLuc/Cyclin Y in HEK-293; type: binding; conditions: 10µM
CDK12/Cyclin K = CDK12/Cyclin K (Homo sapiens, UniProt Q9NYV4); assay: NanoBRET live-cell target engagement, CDK12-NanoLuc/Cyclin K in HEK-293; type: binding; conditions: 10µM
CDK17/Cyclin Y = CDK17/Cyclin Y (Homo sapiens, UniProt Q00537); assay: NanoBRET live-cell target engagement, CDK17-NanoLuc/Cyclin Y in HEK-293; type: binding; conditions: 10µM
CDK9/Cyclin K = CDK9/Cyclin K (Homo sapiens, UniProt P50750); assay: NanoBRET live-cell target engagement, NanoLuc-CDK9/Cyclin K in HEK-293; type: binding; conditions: 10µM
CDK10/Cyclin L2 = CDK10/Cyclin L2 (Homo sapiens, UniProt Q15131); assay: NanoBRET live-cell target engagement, CDK10-NanoLuc/Cyclin L2 in HEK-293; conditions: 10µM
CDK7 = CDK7 (Homo sapiens, UniProt P50613); assay: NanoBRET live-cell target engagement, NanoLuc-CDK7 in HEK-293; type: binding; conditions: 10µM
CDK5/CDK5R1 = CDK5/CDK5R1 (Homo sapiens, UniProt Q00535); assay: NanoBRET live-cell target engagement, CDK5-NanoLuc/CDK5R1 in HEK-293; type: binding; conditions: 10µM
CDK6/Cyclin D1 = CDK6/Cyclin D1 (Homo sapiens, UniProt Q00534); assay: NanoBRET live-cell target engagement, NanoLuc-CDK6/Cyclin D1 in HEK-293; type: binding; conditions: 10µM
CDK3/Cyclin E1 = CDK3/Cyclin E1 (Homo sapiens, UniProt Q00526); assay: NanoBRET live-cell target engagement, CDK3-NanoLuc/Cyclin E1 in HEK-293; type: binding; conditions: 10µM
Chain of CDK3/Cyclin E1 (Q00526 whole entry): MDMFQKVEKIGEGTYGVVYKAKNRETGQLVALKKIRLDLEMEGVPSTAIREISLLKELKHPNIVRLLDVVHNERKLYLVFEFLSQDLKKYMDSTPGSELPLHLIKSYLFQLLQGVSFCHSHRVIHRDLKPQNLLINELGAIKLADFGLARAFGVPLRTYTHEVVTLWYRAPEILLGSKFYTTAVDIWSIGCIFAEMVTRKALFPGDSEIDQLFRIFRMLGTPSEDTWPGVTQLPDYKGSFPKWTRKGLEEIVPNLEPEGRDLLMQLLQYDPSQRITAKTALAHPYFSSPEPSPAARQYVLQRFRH
Chain of CDK3/Cyclin E1 (P24864 whole entry partner): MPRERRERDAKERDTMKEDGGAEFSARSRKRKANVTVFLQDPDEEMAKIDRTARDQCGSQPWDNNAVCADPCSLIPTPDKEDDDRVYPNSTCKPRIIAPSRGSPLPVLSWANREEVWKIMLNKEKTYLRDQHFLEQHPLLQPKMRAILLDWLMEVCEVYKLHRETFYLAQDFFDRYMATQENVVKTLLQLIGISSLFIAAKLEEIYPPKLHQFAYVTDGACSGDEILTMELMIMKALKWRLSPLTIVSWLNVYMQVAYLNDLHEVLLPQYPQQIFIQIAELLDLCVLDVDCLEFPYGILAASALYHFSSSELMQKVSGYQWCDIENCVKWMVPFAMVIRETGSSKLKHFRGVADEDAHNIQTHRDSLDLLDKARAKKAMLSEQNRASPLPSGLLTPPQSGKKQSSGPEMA

Chain of CDK4/Cyclin D1 (P11802 whole entry): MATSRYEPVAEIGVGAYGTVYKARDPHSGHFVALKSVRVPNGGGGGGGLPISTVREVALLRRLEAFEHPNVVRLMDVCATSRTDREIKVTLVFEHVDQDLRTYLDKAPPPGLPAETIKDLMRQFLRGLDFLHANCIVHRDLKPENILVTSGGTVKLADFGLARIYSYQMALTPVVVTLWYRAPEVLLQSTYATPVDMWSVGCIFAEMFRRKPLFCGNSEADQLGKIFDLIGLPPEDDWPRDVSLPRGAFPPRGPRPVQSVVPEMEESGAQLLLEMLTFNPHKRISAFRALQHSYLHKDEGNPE
Chain of CDK4/Cyclin D1 (P24385 whole entry partner): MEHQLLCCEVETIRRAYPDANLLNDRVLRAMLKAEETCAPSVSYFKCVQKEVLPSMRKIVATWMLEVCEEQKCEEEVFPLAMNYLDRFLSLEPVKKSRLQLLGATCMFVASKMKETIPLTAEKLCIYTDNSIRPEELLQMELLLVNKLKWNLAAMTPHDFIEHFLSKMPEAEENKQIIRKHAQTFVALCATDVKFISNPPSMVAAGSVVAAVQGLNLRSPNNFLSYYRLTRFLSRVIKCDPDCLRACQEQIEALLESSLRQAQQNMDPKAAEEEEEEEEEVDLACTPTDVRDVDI
Chain of CDK9/Cyclin K (P50750 whole entry): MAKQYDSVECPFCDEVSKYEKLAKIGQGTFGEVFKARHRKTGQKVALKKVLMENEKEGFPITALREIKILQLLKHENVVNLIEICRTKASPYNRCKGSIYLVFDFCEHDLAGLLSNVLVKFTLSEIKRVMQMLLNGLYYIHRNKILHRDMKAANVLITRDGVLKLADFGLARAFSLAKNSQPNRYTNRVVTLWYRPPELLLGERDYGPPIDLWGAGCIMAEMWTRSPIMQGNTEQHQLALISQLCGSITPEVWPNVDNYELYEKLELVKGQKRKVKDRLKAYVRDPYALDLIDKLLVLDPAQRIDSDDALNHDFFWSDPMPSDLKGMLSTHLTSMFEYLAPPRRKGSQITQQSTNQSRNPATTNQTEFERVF
Chain of CDK9/Cyclin K (O75909 whole entry partner): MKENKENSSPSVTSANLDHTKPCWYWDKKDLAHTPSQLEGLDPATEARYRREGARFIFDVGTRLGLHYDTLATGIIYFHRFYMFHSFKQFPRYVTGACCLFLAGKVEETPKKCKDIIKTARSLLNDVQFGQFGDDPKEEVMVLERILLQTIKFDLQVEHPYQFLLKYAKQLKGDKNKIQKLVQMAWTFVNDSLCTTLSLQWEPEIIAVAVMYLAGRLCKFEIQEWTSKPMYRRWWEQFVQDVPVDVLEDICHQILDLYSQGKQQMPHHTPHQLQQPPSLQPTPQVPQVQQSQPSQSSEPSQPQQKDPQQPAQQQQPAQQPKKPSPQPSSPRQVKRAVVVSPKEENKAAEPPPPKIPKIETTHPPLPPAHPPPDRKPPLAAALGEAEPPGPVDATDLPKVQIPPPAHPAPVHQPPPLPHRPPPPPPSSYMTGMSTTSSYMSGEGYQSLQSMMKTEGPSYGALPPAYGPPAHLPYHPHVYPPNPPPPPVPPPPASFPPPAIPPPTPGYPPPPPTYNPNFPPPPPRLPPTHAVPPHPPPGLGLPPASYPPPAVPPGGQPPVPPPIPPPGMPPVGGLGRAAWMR
Chain of CDK10/Cyclin L2 (Q15131 whole entry): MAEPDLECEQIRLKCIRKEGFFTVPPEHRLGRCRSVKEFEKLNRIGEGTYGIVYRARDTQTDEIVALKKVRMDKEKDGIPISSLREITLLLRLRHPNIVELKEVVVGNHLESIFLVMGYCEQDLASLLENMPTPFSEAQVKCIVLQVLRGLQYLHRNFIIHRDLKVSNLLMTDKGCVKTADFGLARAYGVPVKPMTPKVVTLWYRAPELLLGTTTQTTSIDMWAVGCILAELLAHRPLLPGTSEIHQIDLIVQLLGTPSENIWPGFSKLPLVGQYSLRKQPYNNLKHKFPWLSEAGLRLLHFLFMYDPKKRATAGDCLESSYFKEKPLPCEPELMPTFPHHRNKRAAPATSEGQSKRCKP
Chain of CDK1/Cyclin E1 (P06493 whole entry): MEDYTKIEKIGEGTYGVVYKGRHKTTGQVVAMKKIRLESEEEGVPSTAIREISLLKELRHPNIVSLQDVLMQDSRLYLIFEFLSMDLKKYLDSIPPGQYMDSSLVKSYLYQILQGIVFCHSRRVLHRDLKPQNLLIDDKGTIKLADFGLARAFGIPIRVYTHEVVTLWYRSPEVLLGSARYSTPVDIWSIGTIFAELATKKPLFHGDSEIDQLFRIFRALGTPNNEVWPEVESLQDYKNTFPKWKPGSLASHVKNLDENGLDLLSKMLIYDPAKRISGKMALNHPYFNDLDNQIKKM
Chain of CDK1/Cyclin E1 (P24864 whole entry partner): as the sequence (P24864 whole entry partner) above
Chain of CDK6/Cyclin D1 (Q00534 whole entry): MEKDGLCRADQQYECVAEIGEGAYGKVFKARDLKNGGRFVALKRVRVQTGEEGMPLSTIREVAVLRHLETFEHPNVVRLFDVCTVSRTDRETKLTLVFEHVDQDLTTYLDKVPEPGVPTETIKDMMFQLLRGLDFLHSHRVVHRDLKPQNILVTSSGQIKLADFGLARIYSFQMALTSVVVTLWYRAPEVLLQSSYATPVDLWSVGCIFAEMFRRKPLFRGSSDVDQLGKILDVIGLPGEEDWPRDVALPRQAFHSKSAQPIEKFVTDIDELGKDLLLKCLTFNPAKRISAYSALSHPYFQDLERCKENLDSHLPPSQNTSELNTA
Chain of CDK6/Cyclin D1 (P24385 whole entry partner): as the sequence (P24385 whole entry partner) above
Chain of CDK14/Cyclin Y (O94921 whole entry): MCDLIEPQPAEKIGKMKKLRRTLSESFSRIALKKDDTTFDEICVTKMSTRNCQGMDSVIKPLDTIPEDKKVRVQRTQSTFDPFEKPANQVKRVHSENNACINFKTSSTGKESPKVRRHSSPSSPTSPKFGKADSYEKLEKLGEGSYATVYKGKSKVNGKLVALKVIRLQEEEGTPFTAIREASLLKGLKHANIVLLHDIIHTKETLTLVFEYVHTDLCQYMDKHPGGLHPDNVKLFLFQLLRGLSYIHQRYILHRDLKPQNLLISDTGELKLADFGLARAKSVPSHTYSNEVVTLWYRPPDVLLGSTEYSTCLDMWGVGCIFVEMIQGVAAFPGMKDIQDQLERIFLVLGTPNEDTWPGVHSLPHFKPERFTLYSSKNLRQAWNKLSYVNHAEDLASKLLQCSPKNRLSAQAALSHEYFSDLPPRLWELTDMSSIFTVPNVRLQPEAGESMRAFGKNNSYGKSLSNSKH
Chain of CDK14/Cyclin Y (Q8ND76 whole entry partner): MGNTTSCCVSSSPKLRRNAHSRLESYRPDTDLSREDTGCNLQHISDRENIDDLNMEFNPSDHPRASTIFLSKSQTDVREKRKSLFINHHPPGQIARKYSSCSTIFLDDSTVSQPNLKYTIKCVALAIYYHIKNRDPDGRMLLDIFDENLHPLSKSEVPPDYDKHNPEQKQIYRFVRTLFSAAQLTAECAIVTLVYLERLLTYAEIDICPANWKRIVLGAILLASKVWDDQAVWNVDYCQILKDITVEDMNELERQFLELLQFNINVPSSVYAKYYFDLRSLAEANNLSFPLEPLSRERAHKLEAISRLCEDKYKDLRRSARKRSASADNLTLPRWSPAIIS
Chain of CDK11B/Cyclin L2 (P21127 1-782 isoform P21127-2): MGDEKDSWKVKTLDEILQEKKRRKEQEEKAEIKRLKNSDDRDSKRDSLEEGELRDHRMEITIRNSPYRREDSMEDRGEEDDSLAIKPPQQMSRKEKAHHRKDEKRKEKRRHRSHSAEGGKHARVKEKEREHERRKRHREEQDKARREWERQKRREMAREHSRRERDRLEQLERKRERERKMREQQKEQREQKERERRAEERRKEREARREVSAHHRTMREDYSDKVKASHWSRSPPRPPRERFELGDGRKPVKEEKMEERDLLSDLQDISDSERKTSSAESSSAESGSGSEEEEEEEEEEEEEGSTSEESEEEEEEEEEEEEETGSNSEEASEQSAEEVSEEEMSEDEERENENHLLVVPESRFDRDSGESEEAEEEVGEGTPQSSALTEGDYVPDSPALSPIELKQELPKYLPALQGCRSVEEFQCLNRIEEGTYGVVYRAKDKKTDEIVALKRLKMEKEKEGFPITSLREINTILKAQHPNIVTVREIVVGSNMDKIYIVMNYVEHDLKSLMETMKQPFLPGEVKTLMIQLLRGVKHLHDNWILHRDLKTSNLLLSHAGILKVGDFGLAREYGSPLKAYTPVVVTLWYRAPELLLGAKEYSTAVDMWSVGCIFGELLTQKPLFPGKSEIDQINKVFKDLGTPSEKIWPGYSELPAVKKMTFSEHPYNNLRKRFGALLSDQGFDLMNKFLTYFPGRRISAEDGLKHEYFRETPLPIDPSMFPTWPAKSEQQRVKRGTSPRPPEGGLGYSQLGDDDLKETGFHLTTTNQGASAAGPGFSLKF

Cc1c(Br)c(Br)c2c3c1nc(N1CCNCC1)n3CCC2.Cl [SEL 120-34A]
CDK11b/L2 Inhibition at 10µM (%) (CDK11B/Cyclin L2; average of experiments): 38.1% | CDK11b/L2 Inhibition at 10µM (%) (CDK11B/Cyclin L2; independent experiment 1): 35.0% | CDK11b/L2 Inhibition at 10µM (%) (CDK11B/Cyclin L2; independent experiment 2): 41.2% | CDK1/E1 Inhibition at 10µM (%) (CDK1/Cyclin E1; average of experiments): 37.6% | CDK1/E1 Inhibition at 10µM (%) (CDK1/Cyclin E1; independent experiment 1): 21.0% | CDK1/E1 Inhibition at 10µM (%) (CDK1/Cyclin E1; independent experiment 2): 54.1% | CDK16/Y Inhibition at 10µM (%) (CDK16/Cyclin Y; independent experiment 1): 51.2% | CDK16/Y Inhibition at 10µM (%) (CDK16/Cyclin Y; independent experiment 2): 12.7% | CDK13/K Inhibition at 10µM (%) (CDK13/Cyclin K; average of experiments): 36.8% | CDK13/K Inhibition at 10µM (%) (CDK13/Cyclin K; independent experiment 1): 29.4% | CDK13/K Inhibition at 10µM (%) (CDK13/Cyclin K; independent experiment 2): 44.2% | CDK20/H Inhibition at 10µM (%) (CDK20/Cyclin H; independent experiment 1): 7.8% | CDK20/H Inhibition at 10µM (%) (CDK20/Cyclin H; independent experiment 2): 31.3% | CDK4/D1 Inhibition at 10µM (%) (CDK4/Cyclin D1; average of experiments): 37.4% | CDK4/D1 Inhibition at 10µM (%) (CDK4/Cyclin D1; independent experiment 1): 12.4% | CDK4/D1 Inhibition at 10µM (%) (CDK4/Cyclin D1; independent experiment 2): 62.4% | CDK15/Y Inhibition at 10µM (%) (CDK15/Cyclin Y; average of experiments): 37.3% | CDK15/Y Inhibition at 10µM (%) (CDK15/Cyclin Y; independent experiment 1): 38.3% | CDK15/Y Inhibition at 10µM (%) (CDK15/Cyclin Y; independent experiment 2): 36.3% | CDK2/E1 Inhibition at 10µM (%) (CDK2/Cyclin E1; average of experiments): 22.7% | CDK2/E1 Inhibition at 10µM (%) (CDK2/Cyclin E1; independent experiment 1): 24.3% | CDK2/E1 Inhibition at 10µM (%) (CDK2/Cyclin E1; independent experiment 2): 21.2% | CDK19/C Inhibition at 10µM (%) (CDK19/Cyclin C; average of experiments): 99.2% | CDK19/C Inhibition at 10µM (%) (CDK19/Cyclin C; independent experiment 1): 96.4% | CDK19/C Inhibition at 10µM (%) (CDK19/Cyclin C; independent experiment 2): 102.0% | IC50 (CDK19/Cyclin C; read-out: CDK19/C IC50, independent experiment 1): 0.12 µM | IC50 (CDK19/Cyclin C; read-out: CDK19/C IC50, independent experiment 2): 0.14 µM | IC50 (CDK19/Cyclin C; read-out: CDK19/Y IC50, average (± SEM where n=3)): 0.13 µM | CDK8/C Inhibition at 10µM (%) (CDK8/Cyclin C; average of experiments): 97.3% | CDK8/C Inhibition at 10µM (%) (CDK8/Cyclin C; independent experiment 1): 96.1% | CDK8/C Inhibition at 10µM (%) (CDK8/Cyclin C; independent experiment 2): 98.6% | IC50 (CDK8/Cyclin C; average (± SEM where n=3)): 0.075 µM | IC50 (CDK8/Cyclin C; independent experiment 1): 0.073 µM | IC50 (CDK8/Cyclin C; independent experiment 2): 0.077 µM | CDK11a/L2 Inhibition at 10µM (%) (CDK11A/Cyclin L2; average of experiments): 43.7% | CDK11a/L2 Inhibition at 10µM (%) (CDK11A/Cyclin L2; independent experiment 1): 31.1% | CDK11a/L2 Inhibition at 10µM (%) (CDK11A/Cyclin L2; independent experiment 2): 56.3% | CDK14/Y Inhibition at 10µM (%) (CDK14/Cyclin Y; average of experiments): 26.1% | CDK14/Y Inhibition at 10µM (%) (CDK14/Cyclin Y; independent experiment 1): 21.7% | CDK14/Y Inhibition at 10µM (%) (CDK14/Cyclin Y; independent experiment 2): 30.4% | CDK18/Y Inhibition at 10µM (%) (CDK18/Cyclin Y; average of experiments): 39.4% | CDK18/Y Inhibition at 10µM (%) (CDK18/Cyclin Y; independent experiment 1): 47.0% | CDK18/Y Inhibition at 10µM (%) (CDK18/Cyclin Y; independent experiment 2): 31.9% | CDK12/K Inhibition at 10µM (%) (CDK12/Cyclin K; average of experiments): 44.4% | CDK12/K Inhibition at 10µM (%) (CDK12/Cyclin K; independent experiment 1): 40.8% | CDK12/K Inhibition at 10µM (%) (CDK12/Cyclin K; independent experiment 2): 48.0% | CDK17/Y Inhibition at 10µM (%) (CDK17/Cyclin Y; average of experiments): 38.7% | CDK17/Y Inhibition at 10µM (%) (CDK17/Cyclin Y; independent experiment 1): 45.5% | CDK17/Y Inhibition at 10µM (%) (CDK17/Cyclin Y; independent experiment 2): 32.0% | CDK9/K Inhibition at 10µM (%) (CDK9/Cyclin K; average of experiments): 71.2% | CDK9/K Inhibition at 10µM (%) (CDK9/Cyclin K; independent experiment 1): 54.9% | CDK9/K Inhibition at 10µM (%) (CDK9/Cyclin K; independent experiment 2): 87.6% | CDK10/L2 Inhibition at 10µM (%) (CDK10/Cyclin L2; average of experiments): 33.9% | CDK10/L2 Inhibition at 10µM (%) (CDK10/Cyclin L2; independent experiment 1): 26.3% | CDK10/L2 Inhibition at 10µM (%) (CDK10/Cyclin L2; independent experiment 2): 41.4% | CDK7 Inhibition at 10µM (%) (CDK7; average of experiments): 37.0% | CDK7 Inhibition at 10µM (%) (CDK7; independent experiment 1): 34.4% | CDK7 Inhibition at 10µM (%) (CDK7; independent experiment 2): 39.7% | CDK5/CDK5R1 Inhibition at 10µM (%) (CDK5/CDK5R1; average of experiments): 46.5% | CDK5/CDK5R1 Inhibition at 10µM (%) (CDK5/CDK5R1; independent experiment 1): 31.2% | CDK5/CDK5R1 Inhibition at 10µM (%) (CDK5/CDK5R1; independent experiment 2): 61.8% | CDK6/D1 Inhibition at 10µM (%) (CDK6/Cyclin D1; average of experiments): 31.6% | CDK6/D1 Inhibition at 10µM (%) (CDK6/Cyclin D1; independent experiment 1): 10.1% | CDK6/D1 Inhibition at 10µM (%) (CDK6/Cyclin D1; independent experiment 2): 53.1% | CDK3/E1 Inhibition at 10µM (%) (CDK3/Cyclin E1; average of experiments): 33.7% | CDK3/E1 Inhibition at 10µM (%) (CDK3/Cyclin E1; independent experiment 1): 26.5% | CDK3/E1 Inhibition at 10µM (%) (CDK3/Cyclin E1; independent experiment 2): 40.8%
